Drawing on patent EP4752152A1, “STEROID COMPOUND, AND PREPARATION METHOD THEREFOR AND USE THEREOF” (Cholesgen (Shanghai) Co.Ltd., priority 2023, dated 2025), this text covers IC50 and solubility for 7 compounds.

pIC50: −log10 of the molar value. ≈ marks a conversion by molar mass, not a printed value.

The test system of series [1] is SREBP pathway. Kind of series: SREBP luciferase reporter gene system (SRE-luciferase assay). To be noted: Huh-7/SRE-luc cells, sterol-deficient medium, 0.01-10 µM. The series is classed as cell-based, human. The method in brief:
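Huh-7 cells stably carrying LDLR promoter-luciferase plus GFP were treated 16 h in sterol-deficient medium (5% lipoprotein-deficient serum, 2 µM lovastatin, 10 µM mevalonic acid) at 0.01–10 µM. Luciferase/GFP ratio measured as pathway activity; inhibition versus DMSO fitted to a four-parameter model for IC50.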

A short description of series [2]: Solubility in fasted-state simulated intestinal fluid (FaSSIF). The series is classed as physicochemical. The note with it: FaSSIF pH 6.5, 300 µM sample solution, room temperature. Here is the method:
Compound powder was dissolved in DMSO to prepare a 10.0 mM stock solution for later use. 0.021 g NaOH, 0.198 g NaH2PO4, and 0.309 g NaCl were weighed and added to 50.0 mL of ultrapure water. After thorough mixing, the pH was adjusted to 6.5 using HCl or NaOH. Then, 0.112 g of FaSSIF powder was added. After complete dissolution, the solution was allowed to stand at room temperature for 2 hours for later use. A certain volume of the compound stock solution was added to a certain volume of FaSSIF to prepare a 300 µM sample solution, which was mixed at room temperature under 1000 rpm for 1 hour. After 1 hour, the sample was centrifuged, and a certain volume of supernatant was taken. The termination solution was added to precipitate the sample, which was then thoroughly mixed and centrifuged for 20 minutes. The supernatant was then taken again, diluted with dilution solution, and then analyzed by liquid chromatography-tandem mass spectrometry (LC-MS/MS). The concentration of the test compound in the samples was quantitatively determined using LC-MS/MS. Table 3: FaSSIF solubility results of compounds from some examples

Series [3] has as its system Fatty Acid Synthase (FASN) gene. The series is described as follows: Inhibition of FASN gene expression (qPCR) in Huh-7 cells. In kind it is cell-based, human. To be noted: Homo sapiens, Huh-7, 16 h, Huh-7 cells, starvation medium, 16 hours, qPCR; class symbols; read-out: FASN IC50. The method in brief:
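Huh-7 cells switched to starvation DMEM (5% LPDS, 2 µM lovastatin, 10 µM mevalonate) and treated 16 h with compound, top 3000 nM, 3-fold dilutions, 5 concentrations. FASN mRNA by RT-qPCR; inhibition relative to DMSO, IC50 from four-parameter fit.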

Where [4] appears, read: FaSSIF, pH 6.5, fassif, kinetic from dmso stock.

As to `COc1cc(F)c(C(O)CCC[C@@H](C)[C@H]2CC[C@H]3[C@H]4[C@H](CC[C@]23C)[C@@]2(C)CC[C@H](O)[C@H](O)[C@@H]2CC4(F)F)c(F)c1` (some centres unmarked) [Compound 197], in series [1] (Homo sapiens, Huh-7, 16 h), the IC50 turned out to be 0.073 µM. Also, the solubility at 1 h in series [2] (setting [4]) was 328 µM (≈ 187 µg/mL).

As for `C[C@H](CCCC(O)c1cncc2c1OC(F)(F)O2)[C@H]1CC[C@H]2[C@H]3[C@H](CC[C@]12C)[C@@]1(C)CC[C@H](O)[C@H](O)[C@@H]1CC3(F)F` (stereo partly drawn) [Compound 297, (1R,3aS,3bS,5aR,6R,7 S,9aR,9bS,11aR)-1-[(2R)-6-(2,2-Difluoro[1,3]dioxolo[4,5-c]pyridin-7-yl)-6-hydroxyhexan-2-yl]-4,4-difluoro-9a,11a-dimethylhexadecahydro-1H-cyclopenta[1,2-a]phenanthrene-6,7-diol], the IC50 in series [1] (Homo sapiens, Huh-7, 16 h) stood at 0.197 µM. This compound also returned a solubility at 1 h in series [2] (setting [4]) of 19.5 µM (≈ 11.4 µg/mL).

Regarding `C[C@H](CCCC(O)c1cccc2c1cnn2C)[C@H]1CC[C@H]2[C@H]3[C@H](CC[C@]12C)[C@@]1(C)CC[C@H](O)[C@H](O)[C@@H]1CC3(F)F` (single isomer, unassigned) [Compound 250, (1R,3aS,3bS,5aR,6R,7S,9aR,9bS,11aR)-4,4-difluoro-1-[(2R,6R)-6-hydroxy-6-(1-methylindazol-4-yl)hexan-2-yl]-9a,11a-dimethylhexadecahydro-1H-cyclopenta[1,2-a]phenanthrene-6,7-diol or (1R,3aS,3bS,5aR,6R,7S,9aR,9bS,11aR)-4,4-difluoro-1-[(2R,6S)-6-hydroxy-6-(1-methylindazol-4-yl)hexan-2-yl]-9a,11a-dimethylhexadecahydro-1H-cyclopenta[1,2-a]phenanthrene-6,7-diol], the IC50 in series [1] (16 hours) was 0.066 µM. The compound further displayed a solubility at 1 h in series [2] (60 min) of 32.95 µM (≈ 18.4 µg/mL).

For `C[C@H](CCCC(O)c1nccn1C)[C@H]1CC[C@H]2[C@H]3[C@H](CC[C@]12C)[C@@]1(C)CC[C@H](O)[C@H](O)[C@@H]1CC3(F)F` (stereo partly drawn) [Compound 223, (1R,3aS,3bS,5aR,6R,7 S,9aR,9bS,11aR)-4,4-Difluoro-1-[(2R)-6-hydroxy-6-(3-methylimidazol-2-yl)hexan-2-yl]-9a,11a-dimethylhexadecahydro-1H-cyclopenta[1,2-a]phenanthrene-6,7-diol], in series [1] (Homo sapiens, Huh-7, 16 h), the IC50 stood at 0.093 µM. The compound further came in with a solubility at 1 h in series [2] (setting [4]) of 305 µM (≈ 155 µg/mL).

As for `C[C@H](CCCC(O)c1cccc2c1cnn2C)[C@H]1CC[C@H]2[C@H]3[C@H](CC[C@]12C)[C@@]1(C)CC[C@H](O)[C@H](O)[C@@H]1CC3(F)F` (single isomer, unassigned) [Compound 249, (1R,3aS,3bS,5aR,6R,7S,9aR,9bS,11aR)-4,4-difluoro-1-[(2R,6S)-6-hydroxy-6-(1-methylindazol-4-yl)hexan-2-yl]-9a,11a-dimethylhexadecahydro-1H-cyclopenta[1,2-a]phenanthrene-6,7-diol or (1R,3aS,3bS,5aR,6R,7S,9aR,9bS,11aR)-4,4-difluoro-1-[(2R,6R)-6-hydroxy-6-(1-methylindazol-4-yl)hexan-2-yl]-9a,11a-dimethylhexadecahydro-1H-cyclopenta[1,2-a]phenanthrene-6,7-diol], the IC50 in series [1] (Homo sapiens, Huh-7, 16 h) was 0.058 µM. Besides, the solubility at 1 h in series [2] (setting [4]) is 38.6 µM (≈ 21.6 µg/mL).

`COc1nc(F)cnc1C(O)CCC[C@@H](C)[C@H]1CC[C@H]2[C@H]3[C@H](CC[C@]12C)[C@@]1(C)CC[C@H](O)[C@H](O)[C@@H]1CC3(F)F` (stereo partly drawn) [Compound 175, (1R,3aS,3bS,5aR,6R,7S,9aR,9bS,11aR)-4,4-difluoro-1-[(2R)-6-(5-fluoro-3-methoxypyrazin-2-yl)-6-hydroxyhexan-2-yl]-9a,11a-dimethylhexadecahydro-1H-cyclopenta[1,2-a]phenanthrene-6,7-diol]: the IC50 in series [1] (Homo sapiens, Huh-7, 16 h) was 0.285 µM. For the same compound, in series [2] (setting [4]), the concentration in solution (solubility at 1 h) came to 280 µM (≈ 155 µg/mL).

Consider `COc1nc(F)ccc1C(O)CCC[C@@H](C)[C@H]1CC[C@H]2[C@H]3[C@H](CC[C@]12C)[C@@]1(C)CC[C@H](O)C[C@@H]1CC3(F)F` (stereo partly drawn) [Compound 301, (1R,3aS,3bR,5aR,7S,9aS,9bS,11aR)-4,4-difluoro-1-[(2R)-6-(6-fluoro-2-methoxypyridin-3-yl)-6-hydroxyhexan-2-yl]-9a,11a-dimethylhexadecahydro-1H-cyclopenta[1,2-a]phenanthren-7-ol], for which, in series [1] (Homo sapiens, Huh-7, 16 h), the IC50 came to 0.076 µM. The pIC50 in series [3] was 6.30 to 6.70.
